Columns and labels:
[1] = biological target: T1, Dual specificity protein kinase TTK (Homo sapiens) (UniProt P33981); test: Binding affinity to human hexa-His tagged MPS1 (515 to 795 residue) expressed in Escherichia coli BL2I-DE3 cells assessed as change in melting temperature by thermal shift assay
T1 sequence (whole entry): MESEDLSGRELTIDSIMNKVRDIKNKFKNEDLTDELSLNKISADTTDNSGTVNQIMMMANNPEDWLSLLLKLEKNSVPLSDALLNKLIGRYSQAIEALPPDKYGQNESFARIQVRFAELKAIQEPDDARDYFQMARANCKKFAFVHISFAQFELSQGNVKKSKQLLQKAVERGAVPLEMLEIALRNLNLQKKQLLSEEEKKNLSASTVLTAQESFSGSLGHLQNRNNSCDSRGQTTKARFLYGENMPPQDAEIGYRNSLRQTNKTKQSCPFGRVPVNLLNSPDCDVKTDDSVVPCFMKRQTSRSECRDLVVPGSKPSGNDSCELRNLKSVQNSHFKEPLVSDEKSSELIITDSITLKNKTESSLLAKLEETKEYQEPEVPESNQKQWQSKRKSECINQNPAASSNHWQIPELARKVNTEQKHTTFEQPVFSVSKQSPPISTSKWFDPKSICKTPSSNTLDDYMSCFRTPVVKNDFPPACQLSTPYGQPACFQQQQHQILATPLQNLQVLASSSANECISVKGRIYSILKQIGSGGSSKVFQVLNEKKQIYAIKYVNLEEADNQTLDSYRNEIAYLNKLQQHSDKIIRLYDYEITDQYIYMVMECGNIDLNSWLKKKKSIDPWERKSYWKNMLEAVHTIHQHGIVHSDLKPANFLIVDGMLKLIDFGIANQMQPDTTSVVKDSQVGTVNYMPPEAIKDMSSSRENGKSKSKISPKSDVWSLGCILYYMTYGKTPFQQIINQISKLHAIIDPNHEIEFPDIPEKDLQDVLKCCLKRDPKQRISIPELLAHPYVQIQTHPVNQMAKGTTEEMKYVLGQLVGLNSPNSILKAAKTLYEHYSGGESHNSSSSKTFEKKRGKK

MDA-MB-231 = test: Growth inhibition of human MDA-MB-231 cells measured after 5 days by CellTiter-Glo assay; format: functional; conditions: time 5 day; for GI50: Homo sapiens, MDA-MB-231, 120 h
[2] = biological target: T2, Dual specificity protein kinase TTK (Homo sapiens, UniProt P33981); test: Inhibition of human hexa-His tagged MPS1 (515 to 795 residue) expressed in Escherichia coli BL2I-DE3 cells incubated for 4 hrs in presence of ATP by ADP-glo luminescence assay
T2 sequence (P33981 whole entry): T1 sequence (whole entry)

[3] = Metabolic stability in human liver microsomes assessed as compound remaining after 30 mins; format: ADME, Microsome; conditions: read-out: Stability
[4] = Oral bioavailability in ICR mouse at 10 mg/kg; format: ADME, organism-based; conditions: in vivo
[5] = AUC in ICR mouse at 10 mg/kg, po; format: ADME, organism-based; design: dose 10 mg/kg; conditions: in vivo
[6] = Half life in ICR mouse at 10 mg/kg, po; format: ADME, organism-based; conditions: in vivo
[7] = Cmax in ICR mouse at 10 mg/kg, po; format: ADME, organism-based; design: route oral, dose 10 mg/kg; conditions: in vivo

Structure (SMILES) | ΔTm [1] | GI50 (MDA-MB-231) | GI90 (MDA-MB-231) | IC50 [2] | remaining at 0.5 h [3] | bioavailability [4] | AUC [5] | half-life [6] | Cmax [7]
COc1cc(N2CCCC2=O)ccc1Nc1nc(NC(C)C)c2c(C#N)c[nH]c2n1 | 14.2 °C | 10 nM | 481 nM |  |  |  |  |  | 
COc1cc(N2CCCC2=O)ccc1Nc1nc(NC2CCC2)c2c(C#N)c[nH]c2n1 | 14.3 °C | > 1000 nM | >1000 nM |  |  |  |  |  | 
COc1cc(N2CCCC2=O)ccc1Nc1nc(NCC2CCCC2)c2c(C#N)c[nH]c2n1 | 15.2 °C | 171 nM | >1000 nM |  |  |  |  |  | 
Cc1cc(N2CCOCC2)ccc1Nc1nc(NC2CCCCC2)c2c(C#N)c[nH]c2n1 | 19.9 °C | 17 nM | 313 nM | 6.3 nM | 57% | 44% | 1270 ng·h/mL | 1.2 h | 749 ng/mL
COc1cc(N2CCCC2=O)ccc1Nc1nc(NC2CCCC2)c2c(C#N)c[nH]c2n1 | 17.1 °C | 25 nM | 383 nM |  |  |  |  |  | 
COc1cc(N2CCOCC2=O)ccc1Nc1nc(NC2CCCCC2)c2c(C#N)c[nH]c2n1 | 17.2 °C | 10 nM | >1000 nM |  |  |  |  |  | 
CC[C@H](C)Nc1nc(Nc2ccc(N3CCCC3=O)cc2OC)nc2[nH]cc(C#N)c12 | 15.1 °C | 96 nM | 328 nM |  |  |  |  |  | 
COCC(C)(C)Nc1nc(Nc2ccc(N3CCCC3=O)cc2OC)nc2[nH]cc(C#N)c12 | 15.1 °C | 916 nM | >1000 nM |  |  |  |  |  | 
Cn1cc(Nc2nc(NC3CCCCC3)c3c(C#N)c[nH]c3n2)cn1 | 15.2 °C | 109 nM | >1000 nM |  |  |  |  |  | 
COc1cc(N2CCCC2=O)ccc1Nc1nc(NC2CCCCC2)c2cc[nH]c2n1 | 15.3 °C | 55 nM | 380 nM |  |  |  |  |  | 
COc1cc(N2CCCC2=O)ccc1Nc1nc(NCC(C)(C)C)c2c(C#N)c[nH]c2n1 | 14.4 °C | 149 nM | >1000 nM |  |  |  |  |  | 
Cc1cc(N2CCOCC2)ccc1Nc1nc(NC2CCCCC2)c2c(Cl)c[nH]c2n1 | 18.1 °C | 129 nM | >1000 nM |  |  |  |  |  | 

From ChEMBL document CHEMBL5036311, “X-ray Crystal Structure-Guided Design and Optimization of 7H-Pyrrolo[2,3-d]pyrimidine-5-carbonitrile Scaffold as a Potent and Orally Active Monopolar Spindle 1 Inhibitor” (J Med Chem, 2021)
